Several values for one entry are separate records, joined by “and”; a condition that tells them apart may be missing. Equal entries are not always repeated.
Legend:
mTOR = molecular target: T1, mTOR (Homo sapiens, UniProt P42345); assay: mTOR kinobeads assay (competition-binding assay); conditions: HuT-78 cell extract, endogenously expressed mTOR, bead-immobilized capturing ligand; mean of multiple experiments; read-out: mean pIC50, affinity for mTOR (converted)
T1 construct: capturing of endogenously expressed target proteins from cell extracts by a bead-immobilized capturing ligand; endogenous in cells; host or cells: HuT-78 cells (ECACC 88041901), cell lysate
Experimental: The affinity of test compounds for mTOR was determined in the mTOR kinobeads assay. This is a competition-binding assay based on the capturing of endogenously expressed target proteins from cell extracts by a bead-immobilized capturing ligand in presence of the test compound.
HuT-78 cells (European Collection of Authenticated Cell Cultures, 88041901) were cultured according to vendor's instructions. Frozen cell pellets were homogenized in 3× pellet volumes lysis buffer (50 mM Tris-HCl, 0.4% (v/v) Igepal-CA630, 5% glycerol, 150 mM NaCl, 1.5 mMMgCl2, 25 mM NaF, 1 mM sodium vanadate, 1 mM DTT, pH 7.5, supplemented with EDTA-free protease inhibitor tablet (Roche)). The sample was dispersed using a Dounce homogenizer, kept rotating for 30 min at 4° C., and centrifuged for 10 min at 20 000 g at 4° C. The supernatant was centrifuged again for 1 h at 145 000 g. The protein concentration was determined by Bradford assay (BioRad), aliquots were snap frozen in liquid nitrogen and stored at −80° C.
The capturing matrices were generated by derivatizing N-hydroxysuccinimide (NHS) activated Sepharose 4 beads (GE Healthcare) with the functionalized ligands Compound A and Compound C at a ligand density of 5 mM. Remaining NHS-groups were blocked with ethanolamine.
For the mTOR kinobeads assay the matrices were combined in a 1:1 ratio and equilibrated in DP buffer (50 mM Tris-HCl (pH 7.5), 0.4% (v/v) Igepal-CA630, 5% (v/v) glycerol, 150 mM NaCl, 1.5 mM MgCl2, 25 mM NaF, 1 mM Na3VO4, 1 mM dithiothreitol). All steps of the mTOR kinobeads assay were performed at 4° C. or on ice. The cell lysate was diluted with DP buffer to a final concentration of 5 mg/ml and a final detergent concentration of 0.4% (v/v) Igepal-CA630. For the assay 250 μg cell lysate and 2.5 μl capturing matrix per well (final assay volume: 75 μl) were incubated in the presence of test compounds in a 384-well filter plate (MultiScreenHTS HV Filter Plate, 0.45 μm, MZHVNOW50, Merck Millipore). Each plate contained 16 positive (100 μM Compound B) and 16 negative (2% v/v DMSO) control wells. Compounds were tested in a concentration-response applying 1:3 or 1:4 dilution steps for in total 11 data points. DMSO concentration was 2% (v/v). After 2 h incubation on an overhead shaker (Roto-Shake Genie, Scientific Industries Inc.) at 4° C. the non-bound fraction was removed by washing the beads with DP buffer. Proteins retained on the beads were eluted in SDS sample buffer (200 mM Tris (pH 7.4), 250 mM Trizma Base, 4% (w/v) SDS, 20% (v/v) glycerol, 0.01% (w/v) bromophenol blue, 50 mM dithiothreitol) into a collection plate (384 well polypropylene microplate, V-shape, Greiner, 781 280). Eluates were spotted on nitrocellulose membranes (400 nl per spot) using an automated pin-tool liquid transfer (Biomek FX, Beckman). After drying, the membranes were rehydrated in 20% (v/v) ethanol and blocked by incubation with Odyssey blocking buffer (LICOR, 927-40000) for 1 h at room temperature. Blocked membranes were incubated overnight at 25° C. with Odyssey blocking buffer supplemented with a specific anti-mTOR antibody (Cell Signaling, 2972; 1:500) and 0.4% TWEEN-20. Then the membranes were washed in PBST buffer and incubated for 60 minutes at room temperature with the detection antibody (IRDye™ labelled antibody from LI-COR) diluted in Odyssey blocking buffer (LICOR 927-40000) containing 0.2% TWEEN-20. Then the membranes were washed with PBST and finally rinsed twice with PBS buffer to remove residual Tween-20. The membranes were then scanned with the Odyssey® Infrared Imaging System (LI-COR Biosciences). Fluorescence signals were recorded and analyzed according to the instructions of the manufacturer. Concentration response curves were computed with the software Activity Base. All data were normalized to the mean of 16 high (negative control) and 16 low (positive control) control wells on each plate. […]

[1] = test system: phosphorylated Akt at serine 473 (pAKTs473) in primary human lung fibroblasts; assay: Highthroughput phosphorylated Akt (Ser473) in vitro immunoassay (MSD); format: cell-based; conditions: Fibroblast, 1 h compound, PDGF-BB 10 ng/ml for 10 min, mean of multiple experiments, read-out: mean pIC50, inhibition of pAkt (Ser473) (converted)
Excerpt: Highthroughput Phosphorylated Akt (Ser473) In Vitro Immunoassay
Immunoassay to measure effect of test compounds on phosphorylated Akt at serine 473 (pAKTs473) in primary human lung fibroblasts (Lonza Group Ltd, Basel, Switzerland, Catalogue No. CC-2512) using the MesoScale Discovery (MSD) platform to quantify levels of total Akt and pAKTser473.
Human lung fibroblasts were routinely maintained in fibroblast basal medium supplemented with 2% foetal bovine serum (FBS), 0.1% human fibroblast growth factor (FGF)-B, 0.1% insulin, 0.1% GA-100 (Lonza Group Ltd, Basel, Switzerland, Catalogue No. CC-3132) at 37° C. in 5% CO2 according to the manufacturer's protocol.
For the assay, cells were harvested using Trypsin/EDTA, (Lonza Group Ltd, Basel, Switzerland, Catalogue No. CC-5012), at working concentration of 0.025%, resuspended to give 3×10^5 cells/ml and 50 ul/well seeded into 384-well plates (Greiner Group, Kremsmunster, Austria, Catalogue No. 781091) in media containing 0.4% FBS and incubated o/n at 37° C. in 5% CO2.
Test compounds were dissolved in 100% DMSO to give 10 mM stock solutions and serially diluted to generate an 11-point concentration response curve. Compound were further diluted by […] into 384-well V-bottom polypropylene plates (Greiner Group, Kremsmunster, Austria, Catalogue No. 781280) with media containing 0.4% FBS to give 50 μM top compound concentration in 0.5% DMSO.
Compounds were transferred to 384-well plates contacting cells (0.1% DMSO final) and incubated for 1 h at 37° C. in 5% CO2, prior to stimulation with platelet-derived growth factor (PDGF)-BB (R&D Systems, Catalogue No. 220-BB) at 10 ng/ml (final) for 10 min at RT. Cell assay plates were incubated on ice and treated with lysis buffer (Cell Signalling Technology, Catalogue No. 9806) containing protease and phosphatase inhibitors (Thermo Scientific, Catalogue No. 78444) followed by shaking for 30 min at 4° C.
MSD plates (MSD, MA6000 384-well GAR plate, Catalogue No. L21RA-2) were blocked with blocking buffer containing TBS (MSD, Cat. No. R61TX-1) with 0.5% bovine serum albumin (BSA) (Sigma Aldrich, Cat. No. A7906), 0.1% tween-20 (Sigma Aldrich, Catalogue No. P2287) and coated with rabbit-anti-human pAkt (s473) ab (Cell Signalling Technology, Catalogue No. CST #4060) at RT with shaking, followed by washing (×3) with 1×TBS wash reagent containing 0.1% Tween-20. Cell lysates (30 ul) were added and MSD plates centrifuged at 1000 rpm at 4° C. o/n.
Plates were washed with 1×TBS wash buffer (×3), prior to addition of mouse-anti-human-total Akt ab (1 mg/ml) (Upstate (Milipore), Catalogue No. 05-591) in blocking buffer and shaken at RT for 1 h. After washing with 1×TBS wash buffer (×3), plates were incubated with goat-anti-mouse SULFO-TAG detection ab (MSD, Catalogue No. R32AC-1) (1:500 in blocking buffer) for 1 h at RT. Plates were washed with 1×TBS (×3) and read buffer (2×) (MSD, Catalogue No. R92TC-1) added before detecting electrochemiluminescence (MSD Sector Imager 6000).
Data analysis was performed by determining % inhibition values for test compounds relative to the minimum (+PDGF-BB stimulation) and maximum responses (no PDGF-BB stimulation) with non-linear regression analysis to determine IC50 values for test compounds.

[2] = test system: type I collagen deposition in primary lung fibroblasts; assay: Highthroughput type I collagen deposition (scar-in-a-jar) high content screening assay; format: cell-based; conditions: Homo sapiens, Primary lung fibroblast, 72 h, human pulmonary fibroblasts, TGF-β 1 ng/ml, Ficoll crowding, mean of multiple experiments, read-out: mean pIC50, inhibition of type I collagen deposition (converted)
Experimental: Example 53 Highthroughput Type I Collagen Deposition (Scar-in-a-Jar) High Content Screening Assay
Highthroughput, cellular type I collagen deposition was measured by adapting a published method; scar-in-a-jar (Chen et al., 2009) to primary lung fibroblasts derived from human tissue and combining with high content analysis to permit fluorescent quantification of collagen deposited in the extracellular matrix (ECM). The human biological samples were sourced ethically and their research use was in accord with the terms of the informed consents
Test compounds were dissolved in 100% DMSO to give 10 mM (stocks) and further diluted to give half log dilutions to generate an 11 point concentration response curve. 1 ul was transferred to 384-well plates (Greiner Group, Kremsmunster, Austria, Catalogue No Greine 781280r).
Human pulmonary fibroblasts were maintained in DMEM media (Gibco, Catalogue No 21969) supplemented with 4 mM L-glutamine (Gibco Catalogue No 25030-024) and 10% heat inactivated FBS (Gibco, Catalogue No 10099-141) at 37° C. in 10% CO2. Cells were harvested and resuspended at 4×10^6 cells/ml in a T175 cell culture flask (BD Falcom, Catalogue No: 353112) containing 50 mL of culture media. After 4 days 37° C. in 10% CO2, cells were harvested and seeded at 4000 cells per well (50 μL/well) into 384-well plates (BD Falcon, Catalogue No 353962Greiner) in assay media (0.4% heat inactivated FBS, 4 mM L-glutamine). Plates were sealed with breathable seals (Sigma, Catalogue No. BEM-1). Assay plates were incubated for 72 h at 37° C. in 10% CO2.
Assay media was supplemented with 112.5 mg/ml Ficoll 70 (Sigma, Catalogue No F2878), 75 mg/ml Ficoll 400 (Sigma, Catalogue No F4375) and 50 μg/ml ascorbic acid (Sigma, Catalogue No A8960). 30 μL assay media were added to 1 μl compound (37 μM compound concentration in 1% DMSO). Diluted compounds (10 μL) were transferred to plates containing cells and incubated for 3 h at 37° C. in 10% CO2. Transforming growth factor (TGF)-β (R&D systems, Catalogue No 100-B/CF) was reconstituted to give 10 μg/mL (stock) and further diluted in assay media containing Ficoll and ascorbic acid (1 in 3333). TGF-β was added to cell plates (1 ng/ml final) and cells incubated for 72 h at 37° C. in 10% CO2.
Media was aspirated from cells and 30 μL/well 100% ice-cold methanol added and incubated at RT for 5 min to fix cells. Methanol was aspirated and cells washed with PBS (3×). To block and permeabilise, cells were incubated with PBS containing 1% BSA and 0.1% Triton X 100 for 20 min, followed by PBS wash (3×). Cells were incubated with mouse anti human type I collagen monoclonal antibody (Sigma, Catalogue No C2456) diluted 1:1000 in PBS for 24 h at 4° C. Cells were washed with PBS containing 0.1% Tween-20 (3×) and incubated with secondary alexa fluor 488 goat-anti-mouse antibody (Invitrogen, Catalogue No A11001, 1 in 500 in PBS) and Hoechst 33342 (Sigma, Catalogue No H21492), 1 in 1000 in PBS) for 1 h at RT, prior to washing with PBS containing 0.1% Tween (×4).
Type I collagen immunoreactivity was detected using the INCell 2000 Analyzer (GE Healthcare, INcell 2000) set to excitation and emission wavelengths for DAPI and FITC with laser focus and exposure adjusted to appropriate levels. Images were imported and analysed using Columbus software (Perkin Elmer) and computational algorithms to quantify “total collagen area” and “cell count”.
Data analysis was performed by determining % inhibition values for test compounds relative to the minimum (media only) and maximum responses (TGF-βstimulation) with non-linear regression analysis to determine IC50 values for test compounds.

Compound | IC50 (mTOR) | IC50 [1] [nM] | IC50 [2] [nM]
CC[C@H]1COCCN1c1cc(C2(S(C)(=O)=O)CCOCC2)cc(-c2ccc3[nH]c(CNC)cc3n2)n1 [Example 15, (S)-1-(5-(6-(3-ethylmorpholino)-4-(4-(methylsulfonyl)tetrahydro-2H-pyran-4-yl)pyridin-2-yl)-1H-pyrrolo[3,2-b]pyridin-2-yl)-N-methylmethanamine] | 2.51 to 31.6 nM and 7.94 nM and 2.51 to 316 nM | 2.51 to 10 | –
CCCC1COCCN1c1cc(CS(C)(=O)=O)cc(-c2ccc3[nH]c(CNC)cc3n2)n1 (stereo not shown) [Example 48, ({5-[4-(methanesulfonylmethyl)-6-(3-propylmorpholin-4-yl)pyridin-2-yl]-1H-pyrrolo[3,2-b]pyridin-2-yl}methyl)(methyl)amine] | – | 3.16 to 316 | 39.8 to 1000
